Experimental data reported in ChEMBL document CHEMBL3832031, “DailyMed|setid=d3c528d2-429d-4f37-9ebf-eee8b9fd3050 | TRENTINOIN - tretinoin gel| Oceanside Pharmaceuticals”.

Columns and labels:
[1] = Bioavailability of Tretinoin following multiple topical administration of 0.1 % tretinoin gel to 44 male and female subjects.; type: ADME, organism-based; settings: both, human, in vivo, topical or ocular, dosed compound id 14, dosed compound name TRETINOIN, gender male and female, regimen Multiple dose, study dosing duration 28 days, tissue Plasma
[2] = Bioavailability of Tretinoin following single topical administration of 0.1 % tretinoin gel to 44 male and female subjects.; type: ADME, organism-based; settings: both, human, in vivo, topical or ocular, dosed compound id 14, dosed compound name TRETINOIN, gender male and female, regimen Single dose, study dosing duration 28 days, tissue Plasma

In the case of `CC1=C(/C=C/C(C)=C/C=C/C(C)=C/C(=O)O)C(C)(C)CCC1` [TRETINOIN], the bioavailability [1] is reported as 1.41% and the bioavailability [2] is reported as 0.82%.
